In ChEMBL document CHEMBL1143780, “Towards erythropoietin mimicking small molecules” (Bioorg Med Chem Lett, 2007):
Active and inactive are the calls of the source. The calls are words filed in the database; no cut-off is given here.

Key:
BaF3 [1] = assay: Effect on proliferation in wild type BaF3 cells; assay type: functional, cell-based; conditions: Homo sapiens
BaF3 [2] = assay: Effect on proliferation in BaF3 EPOr cells; assay type: functional, cell-based; conditions: Homo sapiens

Structure (SMILES): COc1ccc(C(=O)/C=C/c2ccc(N3C[C@H](CNC(C)=O)OC3=O)cc2)cc1
- Activity (BaF3 [1]): Active
- Activity (BaF3 [2]): Active
